The subject of experiment [1] is activated human CD4+ T cells. As to the kind of experiment: Cytokine production (ELISA) by human CD4+ T cells stimulated with anti-CD3/CD28 beads and Delta1 beads, with added soluble protein. It counts as cell-based. Particulars: increasing amounts of soluble protein in culture medium, 3 days. As for the experimental part: M450 Streptavidin Dynabead™ magnetic beads (Dynal, USA) were coated with an anti-human-IgG4 biotinylated monoclonal antibody (BD Bioscience, 555879) by rotating them in the presence of the antibody for 30 minutes at room temperature. Beads were washed three times with PBS (1 ml). They were further incubated with hDelta1-hIgG4 (see Example 1 above) for 2 hours at room temperature and then washed three times with PBS (1 ml).
Human peripheral blood mononuclear cells (PBMC) were purified from blood using Ficoll-Paque separation medium (Pharmacia). Briefly, 28 ml of blood were overlaid on 21 ml of Ficoll-Paque separation medium and centrifuged at 18-20° C. for 40 minutes at 400 g. PBMC were recovered from the interface and washed 3 times before use for CD4+ T cell purification.
The CD4+ T cells were incubated in triplicates in a 96-well-plate (flat bottom) at 10^5 CD4/well/200 μl in RPMI medium containing 10% FCS, glutamine, penicillin, streptomycin and β2-mercaptoethanol.
Cytokine production was induced by stimulating the cells with anti-CD3/CD28 T cell expander beads from Dynal at a 1:1 ratio (bead/cell) in the presence of beads coated with hDelta1-IgG4Fc fusion protein (Example 1 above) at a 5:1 ratio (beads/cell). In some wells, increasing amounts of soluble hdelta1-IgG4Fc fusion protein were also added.
The supernatants were removed after 3 days of incubation at 37° C./5% CO2/humidified atmosphere and cytokine production was evaluated by ELISA using Pharmingen kits OptEIA Set human IL10 (catalog No. 555157), OptEIA Set human IL-5 (catalog No. 555202) for IL-10 and IL-5 respectively according to the manufacturer's instructions.
Human peripheral blood mononuclear cells (PBMC) were purified from blood using Ficoll-Paque separation medium (Pharmacia). […]
The supernatants were removed after 3 days of incubation at 37° C./5% CO2/humidified atmosphere and cytokine production was evaluated by ELISA using Pharmingen kits OptEIA Set human IL10 (Catalog No. 555157), OptEIA Set human IL-5 (Catalog No. 555202) for IL-10 and IL-5 respectively according to the manufacturer's instructions. […]

In experiment [2] the test system is Notch signalling in CHO-N2 (N27#11) cells expressing full length human Notch2. Briefly: Antagonist assay of Notch signalling from Delta-coated Dynabeads (N27#11 luciferase reporter). It counts as cell-based. The note with it: soluble protein, N27#11 reporter cells; for inhibition of Notch signalling from Delta beads compared to control: IgG4Fc as control. As for the experimental part: Fc tagged Notch signalling modulators were immobilised on Streptavidin-Dynabeads (CELLection Biotin Binder Dynabeads [Cat. No. 115.21] at 4.0×10^8 beads/ml from Dynal (UK) Ltd; “beads”) in combination with biotinylated α-IgG-4 (clone JDC14 at 0.5 mg/ml from Pharmingen [Cat. No. 555879]) as follows:
A volume of Dynabeads beads corresponding to the total number required was removed from a stock of beads at 4.0×10^8 beads/ml. This was washed twice with 1 ml of PBS, and resuspended in a final volume of 100 μl of PBS containing a biotinylated anti-IgG4 antibody (clone JDC14 at 0.5 mg/ml from Pharmingen [Cat. No. 555879]) in a sterile Eppendorf tube and placed on shaker at room temperature for 30 minutes. The amount of biotinylated anti-IgG4 antibody needed to coat the beads was calculated relative to the fact that 1×10^7 streptavidin Dynabeads bind a maximum of 2 μg of antibody.
After coating the beads with antibody they were washed 3 times with 1 ml of PBS and finally resuspended in mDelta1-IgG4Fc protein diluted in PBS. Beads were coated in a solution of […] protein (usually 5 μg of mDelta1-IgG4Fc protein was added per 10^7 beads to be coated) and the ligand was allowed to bind to the beads in a 1 ml volume for 2 h at room temperature (or 4° C. overnight) on a rotary shaker to keep the beads in suspension. […]
To set up the bead antagonist assay, N27#11 cells (T80 flask) were removed using 0.02% EDTA solution (Sigma), spun down and resuspended in 10 ml DMEM plus 10%(HI) FCS plus glutamine plus P/S. Ten μl of cells were counted and the cell density was adjusted to 2.0×10^5 cells/ml with fresh DMEM plus 10%(HI) FCS plus glutamine plus P/S. The reporter cells were plated out at 100 μl per well of a 96-well plate (i.e. 2×10^4 cells per well) and were placed in an incubator to settle down for at least 30 minutes. […]
The following day 150 μl of supernatant was then removed from all the wells, 100 μl of SteadyGlo™ luciferase assay reagent (Promega) was added and the resulting mixture left at room temperature for 5 minutes. […] Luminescence was then read in a TopCount™ (Packard) counter. […]

As for “hDelta1-IgG4Fc: fusion protein comprising the extracellular domain of human Delta1 fused to the Fc domain of human IgG4 (SEQ ID NO: 5)”, the “effect of added soluble protein on the IL-10 enhancement by bead-immobilised Delta1” value in experiment [1] is recorded as “inhibited”. Besides, the “inhibition of Notch signalling from Delta beads compared to control” value in experiment [2] is on record as “significant inhibition compared to control”.

For the substance “hJagged1EGF1&2-IgG4Fc: human jagged1 sequence up to the end of EGF2 (leader, amino terminal, DSL, EGF1+2) fused to the Fc domain of human IgG4 (SEQ ID NO: 10)”, the “effect of added soluble protein on the IL-10 enhancement by bead-immobilised Delta1” value in experiment [1] is on record as “inhibited”. Further, in experiment [2], the “inhibition of Notch signalling from Delta beads compared to control” value is “significant inhibition compared to control”. The “inhibition of Notch signalling from Delta beads, compared with hDelta1-IgG4Fc” value in experiment [2] (Delta-coated Dynabeads) is recorded as “substantially the same inhibition of Notch signalling”.
